Values quoted from earlier work as cited in patent publication US11376295B2, “Method for preparing Rhus verniciflua stokes extract containing increased fisetin content, and metastasis-inhibiting anticancer agent composition containing same” (MEDIENCE CO.,LTD, priority 2018, dated 2022).

Details: among flavonoids of the Rhus verniciflua Stokes extract; result of research, background

| Compound | anticancer activity |
| --- | --- |
| O=C1c2ccc(O)cc2O[C@H](c2ccc(O)c(O)c2)[C@H]1O [fustin] | low anticancer activity |
| O=c1c(O)c(-c2ccc(O)c(O)c2)oc2cc(O)ccc12 [fisetin] | highest anticancer activity |
